Entries after “also recorded” stand apart in the source; their conditions may differ. Where two headings read alike, the source gives them in different places.
Legend:
rat CCR2 receptor = target: T1, rat CCR2 receptor (Rattus norvegicus, UniProt O55193); test: Calcium flux assay (FLIPR) in HEK293 s cells (Gαqi5) stably expressing rat CCR2; format: cell-based; conditions: read-out: EC50, calcium activation of HEK293 s cells expressing CCR2
T1 construct: expressed in transfected cells; host or cells: HEK293s cells co-expressing chimeric Gαqi5
T1 sequence (O55193 1-373): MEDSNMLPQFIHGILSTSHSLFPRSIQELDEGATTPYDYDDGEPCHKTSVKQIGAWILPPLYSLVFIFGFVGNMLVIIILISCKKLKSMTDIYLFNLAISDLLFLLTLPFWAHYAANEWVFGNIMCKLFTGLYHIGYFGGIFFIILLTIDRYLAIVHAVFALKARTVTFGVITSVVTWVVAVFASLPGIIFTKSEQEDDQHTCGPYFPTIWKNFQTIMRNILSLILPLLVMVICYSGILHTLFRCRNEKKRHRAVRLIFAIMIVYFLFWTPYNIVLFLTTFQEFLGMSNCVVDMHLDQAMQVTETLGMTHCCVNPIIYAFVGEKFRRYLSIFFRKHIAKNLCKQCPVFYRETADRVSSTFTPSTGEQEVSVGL
From the text: Chemokine receptors are known to modulate intracellular calcium concentration. A library of designed molecules was screened on HEK cells expressing the receptor using a calcium flux-assay (FLIPR). Compounds capable of blocking the intracellular calcium rise evoked by mouse CCL2 in HEK293 s cells (Gαqi5) stably expressing the rat CCR2 receptor were selected and further profiled by performing dose-response curves. Mouse and rat CCL2 (mCCL2 and rCCL2) purchased from R&D Systems gave similar median effective concentrations (EC50) values (Additional file 1 Figure S1) and mCCL2 was selected to conduct the screening assay. Cells were pre-incubated (30 min) with a given concentration of compound (from 0.04 to 1 μM) and CCR2 calcium-mediated activation was evoked by the addition of mCCL2 (EC50 concentration, 1 nM).
Briefly, HEK293 s cells stably expressing rat CCR2 and the chimeric Gαqi5 were plated (15000 cells per well) in 384-well assay plates in Dulbecco's modified Eagle's medium (DMEM) for 24 h in a humidified atmosphere at 37°C in 5% CO2. After removing the medium by inversion, cells were loaded with the calcium-sensitive dye Fluo4-AM (Molecular Devices), 15 μL per well of 4 μM FLUO-4/Pluronic acid mix (1 mM) in buffer and incubated at 37°C for 1 h in a humidified chamber (5% CO2/95% air). Cells were washed 4 times in Hanks' balanced salt solution buffer supplemented with 20 mM HEPES + 0.25% bovine serum albumin at pH 7.4. Different concentrations of the test compound (from 10 mM stock in dimethyl sulfoxide) were added in buffer for 30 min at 37°C in 5% CO2. In this assay, mouse CCL2 was added at 1 nM in buffer (EC50 value in Figure 1) and mobilization of intracellular calcium was measured online (FLIPR, Molecular Devices). The EC50 and IC50 values were determined using 8-point concentration-response curve using non-linear regression and a four-parameter logistic model (Prism 4.03 software, GraphPad Software Inc).

[1] = system: DRG neurons from CCI rats; test: Calcium imaging of cultured DRG neurons from CCI rats; format: cell-based, rat; conditions: 1 μM, before (5 min), during and after 100 nM CCL2; n = 6 cells
Procedure: Since rCCL2 can activate both CCR2 and CCR5 [25] we used AZ889 to test if a selective CCR2 antagonist can prevent CCL2-induced calcium signalling in native tissue.
Ganglia from L4 to L6 dorsal roots were harvested from CCI animals, 4 to 19 days post-surgery. The tissue was enzymatically digested at 37°C for 90 min with collagenase-A (2 mg/mL) and papain (1 mg/mL) in DMEM. Cells were plated on Poly-D-Lysine coated coverslips and maintained in F12 supplemented with 10% heat inactivated horse serum, 2 mM glutamine-penicillin-streptomycin, and 2 ng/ml NGF and GDNF for 1-3 days in a humidified chamber (5% CO2/95% O2).

CCI rats = test: Thermal (heat) hyperalgesia (paw withdrawal latency) in CCI neuropathic rats; format: in vivo, rat; conditions: p.o., tested 1 h after dosing
From the text: Chronic nerve constriction injury (CCI) was induced as described previously [38] in male Sprague-Dawley rats weighing 125-150 g at the time of surgery. Briefly, under isoflurane anaesthesia, a small incision was made 0.5 cm below the pelvis, and the biceps femoris and the gluteus superficialis (left side) were separated. The sciatic nerve was exposed, isolated, and four loose ligatures (4-0 chromic gut) with 1 mm spacing were placed around it. The nerve was placed back in its natural position and the incision sealed with tissue adhesive (VetbondTM). The animals were allowed to recover for 7-10 days before conducting any behavioural testing. Animals that were not gaining weight or were showing clinical signs of distress (e.g. paralysis, self-mutilation, extensive alopecia) were not included in this study.
Animals were brought to the laboratory 24 h prior to behavioural testing for acclimatization. […] Paw withdrawal latencies were calculated as the mean of two trials conducted with 5 min intervals between measures.
CCI rats and their corresponding naïve controls were used throughout this study. […] In order to assess behavioural pathology, baseline hyperalgesia was determined 1-2 days before pharmacological testing. […] The percentage of anti-hyperalgesia for each rat was calculated according to the following equation: % anti-hyperalgesia = [(value-vehicle)/(naïve-vehicle)]*100.

rats = test: Side effects during behavioural studies (locomotor activity assay, muscle tone, overt signs); format: in vivo, rat; conditions: highest dose (pregabalin 100 mg/kg p.o.); data not shown
[2] = system: DRG neurons from CCI rats; test: Whole-cell patch clamp, evoked action potential firing in DRG neurons from CCI rats; format: cell-based, rat
Procedure: To assess whether DRG neurons from rats with chronic constriction injury (CCI) were also CCL2-sensitive, we performed whole-cell patch clamp recordings to evaluate the effect of the chemokine on cell excitability. A suprathreshold (500 ms) depolarizing current step was used to evoke a stable baseline of action potentials (Figure 2A) in the absence or presence of locally applied CCL2 (1min) onto the recorded cell.
Ganglia from L4 to L6 dorsal roots were harvested from CCI animals, 4 to 19 days post-surgery. The tissue was enzymatically digested at 37°C for 90 min with collagenase-A (2 mg/mL) and papain (1 mg/mL) in DMEM. […]
DRG cells maintained for 1-3 days in culture were transferred to a recording chamber fixed to the stage of an inverted microscope (Olympus) and constantly perfused (0.5 mL/min) with Dulbecco's phosphate buffered saline (PBS), a standard extracellular bathing solution containing (in mM): 137 NaCl; 8.1 Na2HPO4•7H2O; 2.68 KCl; 1.47 KH2PO4; 0.9 CaCl2; 0.5 MgCl2•6H2O at pH 7 and 275 to 290 mOsm. […] Signals were filtered at 1 kHz, digitized at 10 kHz (Digidata, Molecular Devices) and captured and analyzed off-line (Pclamp9 software, Molecular Devices). Action potentials were recorded with borosilicate glass patch pipettes (2-6 MΩ) filled with solution containing (in mM): 110 K-gluconate, 20 KCl, 10 EGTA, 8 NaCl, 10 HEPES, 1 MgCl2 and 4 Mg-ATP at pH 7.3. […]

[3] = system: DRG cells harvested from naive rats; test: Calcium imaging of DRG cells harvested from naive rats; format: cell-based, rat; conditions: data not shown
From the text: An increased number of action potentials in DRG neurons following CCR2 activation is an intriguing observation since CCR2 is a pertussis toxin (PTX)-sensitive GPCR coupled to inhibitory Gi and/or […]. Additionally, CCR2 activation evokes excitatory Ca^2+ rises in DRG cells but the underlying mechanism is still poorly understood. To gain further insight into CCR2-mediated Ca^2+ mobilization, we next evaluated the sensitivity of both neuronal and non-neuronal cell types in the DRG by recording changes in intracellular calcium evoked by CCL2. […] In mixed-cell cultures from CCI rats, CCL2 evoked an intracellular calcium rise in both neuronal and non-neuronal DRG cells (Figure 3A-C). Non-neuronal cells, satellite cells or microglia, were easily distinguished from neurons by their size, morphology and absence of dendritic processes (Figure 3A).
Cells and spinal cord slices were loaded with Fluo4-AM (4 μM, 30 min) in an oxygenated chamber (5% CO2/95% O2). DRG cells and spinal cord slices were washed in PBS and ACSF respectively and placed in a chamber mounted on the stage of a fluorescent microscope (Olympus). […] For each time-lapse image, the fluorescence intensity (F) was averaged over the soma area. Changes in fluorescence (ΔF) were measured as relative changes from baseline fluorescence (F0) and expressed as: […]

[4] = system: neuronal cells in spinal cord slices from CCI rats; test: Calcium imaging of neurons in spinal cord slices from CCI rats; format: cell-based, rat; conditions: bath application of 50 nM CCL2; n = 5
Procedure: (§1) To evaluate this we used spinal cord slices from CCI rats and evaluated if neuronal and non-neuronal cell types were sensitive to CCL2. For these recordings, calcium imaging acquisition was focused on lamina I of the dorsal horn. […] In this region, non-neuronal cells included astrocytes, microglia and other types of glial cells.
(§2) Spinal cord slices from L4 to L6 region were prepared from CCI animals, 4 to 19 days post-surgery, following guidelines by Wan and colleagues. In order to prevent excess bleeding, 20 uL of Xylocaine was injected intramuscularly at several sites on both sides of the spinal cord. Under deep anaesthesia a laminectomy (T11 to L5) was performed. Once exposed, the spinal cord was isolated and submerged in oxygenated ice-cold solution containing (in mM): 250 sucrose, 5 KCl, 2 MgSO4, 1.25 NaH2PO4, 26 NaHCO3 and 10 glucose.

[5] = system: non-neuronal cells in spinal cord slices from CCI rats; test: Calcium imaging of non-neuronal cells in spinal cord slices from CCI rats; format: cell-based, rat; conditions: bath application of 50 nM CCL2; n = 4
Procedure: as §1, §2

[6] = Additional file 1 Figure S1, average of 3 independent experiments

“mCCL2: mouse CC chemokine ligand 2 (monocyte chemoattractant protein-1), CCR2 agonist, purchased from R&D Systems” was tested, and the EC50 (rat CCR2 receptor; [6]) was 0.5 nM and the EC50 (rat CCR2 receptor; Figure 1A) was 1 nM.
In the case of `COc1ccc2c(c1)CC[C@@H]1[C@@H]2CC[C@]2(C)[C@@H](NCCCCCCN3C(=O)C=CC3=O)CC[C@@H]12` [U73122], the “effect on CCL2-evoked calcium mobilization in DRG neurons” value [1] is reported as “significant block of the calcium rise peak; also recorded: significantly blocked”.
For `CC(C)C[C@H](CN)CC(=O)O` [Pregabalin], the “potency in reducing heat hyperalgesia, fold lower than AZ889” value (CCI rats) was 10 fold and the muscle tone (rats) was “clear decrease in muscle tone”.
With “rCCL2: rat CC chemokine ligand 2 (monocyte chemoattractant protein-1), CCR2 agonist, purchased from R&D Systems” the EC50 (rat CCR2 receptor; [6]) was 0.8 nM, the “increase in evoked firing compared to vehicle” value ([2]; CCL2 10 nM, local application 1 min, n = 3) was 29 ± 9% and the “increase in evoked firing (facilitated neuronal firing)” value ([2]; rCCL2 100 nM, n = 6) was 46 ± 13%. For the same molecule, the “calcium response in DRG cells from naive rats” value [3] was “did not evoke any response”, the “mean calcium rise peak in neurons” value [4] was 142.5 ± 87.8% and the “calcium response in non-neuronal cells” value [5] was 57.8 ± 42.3%.

— article PMC3009975, “Blocking spinal CCR2 with AZ889 reversed hyperalgesia in a model of neuropathic pain” (Molecular Pain, 2010)
